Experimental data from ChEMBL document CHEMBL1145942, “Three-dimensional quantitative structure-activity relationship analyses of peptide substrates of the mammalian H+/peptide cotransporter PEPT1” (J Med Chem, 2003).
Where a SMILES comes first, the peptide text is derived from it. [ ]: non-standard residue; d: D form. The star is where a group is joined. Bip = N[C@@H](Cc1ccc(-c2ccccc2)cc1)C(=O)O; Pip = O=C(O)[C@@H]1CCCCN1; NMeA = CN[C@@H](C)C(=O)O; Nle = CCCC[C@H](N)C(=O)O; Orn = NCCC[C@H](N)C(=O)O; Abu = CC[C@H](N)C(=O)O; Cbz = O=C(OCc1ccccc1)*; Boc = CC(C)(C)OC(=O)*; Aib = CC(C)(N)C(=O)O; Sar = CNCC(=O)O

target: T1, Solute carrier family 15 member 1 (Homo sapiens, UniProt P46059); assay: Inhibition constant (Ki) for human intestinal peptide carrier
T1 sequence (P46059 whole entry): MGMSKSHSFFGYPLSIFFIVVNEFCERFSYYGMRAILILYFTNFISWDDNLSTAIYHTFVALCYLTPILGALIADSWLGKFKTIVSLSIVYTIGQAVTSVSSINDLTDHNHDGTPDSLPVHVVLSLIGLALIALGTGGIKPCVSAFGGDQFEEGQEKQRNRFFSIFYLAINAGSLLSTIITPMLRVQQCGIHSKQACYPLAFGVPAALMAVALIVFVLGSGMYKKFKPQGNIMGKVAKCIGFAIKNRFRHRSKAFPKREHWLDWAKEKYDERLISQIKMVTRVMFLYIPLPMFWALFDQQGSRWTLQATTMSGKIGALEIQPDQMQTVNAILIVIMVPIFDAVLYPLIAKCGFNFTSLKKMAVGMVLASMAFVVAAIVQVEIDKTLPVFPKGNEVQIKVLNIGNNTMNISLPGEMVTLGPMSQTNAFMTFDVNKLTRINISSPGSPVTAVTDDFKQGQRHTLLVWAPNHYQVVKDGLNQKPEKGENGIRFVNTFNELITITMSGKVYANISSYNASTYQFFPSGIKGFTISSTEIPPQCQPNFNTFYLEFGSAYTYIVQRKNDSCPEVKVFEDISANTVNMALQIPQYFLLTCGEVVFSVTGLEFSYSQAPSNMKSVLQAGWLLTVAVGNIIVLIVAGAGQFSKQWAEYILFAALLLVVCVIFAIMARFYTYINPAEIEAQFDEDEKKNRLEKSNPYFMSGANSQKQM

Row | Structure (SMILES) | Ki
1 | NCCC(=O)NCC(=O)O | 7300 µM
2 | C[C@H](NC(=O)[C@@H](N)CC(=O)O)C(N)=O (H-Asp-Ala-NH2) | 5400 µM
3 | COC(=O)c1ccc(NC(=O)C(C)N)cc1 (configuration not stated) | 1100 µM
4 | CNCC(=O)N(C)CC(=O)O | 32000 µM
5 | C[C@H](NC(=O)[C@H](C)NC(=O)OC(C)(C)C)C(=O)O (Boc-Ala-Ala-OH) | > 30000 µM
6 | COC(=O)c1cccc(NC(=O)C(C)N)c1 (configuration not stated) | 6900 µM
7 | N[C@@H](CS)C(=O)NCC(=O)O | 200 µM
8 | N[C@@H](Cc1ccc(O)cc1)C(=O)N1CCC[C@H]1C(=O)O (H-Tyr-Pro-OH) | 160 µM
9 | O=C(O)CC[C@H](NC(=O)[C@@H]1CCCN1)C(=O)O (H-Pro-Glu-OH) | 20000 µM
10 | N[C@@H](Cc1ccc(O)cc1)C(=O)N[C@@H](Cc1ccccc1)C(=O)O (H-Tyr-Phe-OH) | 90 µM
11 | CC1NC(=O)C(CCCCN)NC1=O (configuration not stated) | 5400 µM
12 | CC(=O)N[C@@H](C)C(=O)N[C@@H](C)C(=O)O (Ac-Ala-Ala-OH) | > 30000 µM
13 | C[C@H](NC(=O)[C@@H](N)Cc1ccc(-c2ccccc2)cc1)C(=O)O (H-[Bip]-Ala-OH) | 20 µM
14 | CNCC(=O)N1CCC[C@H]1C(=O)O (H-[Sar]-Pro-OH) | 1600 µM
15 | O=C(O)[C@H](CO)NC(=O)[C@@H]1CCCN1 (H-Pro-Ser-OH) | 14000 µM
16 | CC1NC(=O)C(CCCN)NC1=O (configuration not stated) | 2300 µM
17 | CC(NC(=O)[C@H](N)Cc1ccc(OCc2ccccc2)cc1)C(=O)O (some centres not stated) | 1400 µM
18 | C[C@H](NC(=O)[C@@H](N)Cc1cc2ccccc2[nH]1)C(=O)O | 160 µM
19 | CC(N)C(=O)Nc1cccc(-c2ccccc2)c1 (configuration not stated) | 290 µM

Row | Structure (SMILES) | Ki
20 | CC(C)C[C@H](NC(=O)CN)C(=O)O | 160 µM
21 | N[C@@H](CCC(=O)O)C(=O)N1CCC[C@H]1C(=O)O (H-Glu-Pro-OH) | 140 µM
22 | O=C(O)[C@H](Cc1ccccc1)NC(=O)[C@@H]1CCCN1 (H-Pro-Phe-OH) | 1900 µM
23 | C[C@H](N)C(=O)N[C@@H](Cc1ccc(O)cc1)C(=O)O (H-Ala-Tyr-OH) | 150 µM
24 | N[C@@H](Cc1ccccc1)C(=O)N1CCC[C@H]1C(=O)O (H-Phe-Pro-OH) | 130 µM
25 | CC(NC(=O)CN)C(=O)O (configuration not stated) | 380 µM
26 | C[C@@H](NC(=O)[C@@H](N)CC(=O)O)C(=O)OCc1ccccc1 | 8300 µM
27 | CCC(C)C(N)C(=O)N1CCSC1 (configuration not stated) | 6300 µM
28 | C[C@H](NC(=O)[C@@H](N)Cc1ccc(Cc2ccccc2)cc1)C(=O)O | 20 µM
29 | NCC(=O)CCC(=O)O [AMINOLEVULINIC ACID] | 790 µM
30 | NCC(=O)N[C@@H](CC(=O)O)C(=O)O (H-Gly-Asp-OH) | 350 µM
31 | CCCC[C@H](N)C(=O)N[C@@H](C)C(=O)O (H-[Nle]-Ala-OH) | 140 µM
32 | CN[C@@H](C)C(=O)N[C@@H](C)C(=O)O (H-[NMeA]-Ala-OH) | 1800 µM
33 | CN(CC(=O)O)C(=O)CN [GLYCYLSARCOSINE] (H-Gly-[Sar]-OH) | 830 µM
34 | C[C@H](N)C(=O)N[C@@H](Cc1ccc(Cc2ccccc2)cc1)C(=O)O | 120 µM
35 | CC(C)[C@H](N)C(=O)N[C@@H](C)C(=O)O (H-Val-Ala-OH) | 90 µM
36 | N[C@@H](Cc1ccccc1)C(=O)N[C@@H](Cc1ccccc1)C(=O)O (H-Phe-Phe-OH) | 110 µM
37 | N[C@@H](Cc1cc2ccccc2[nH]1)C(=O)N1CCC[C@H]1C(=O)O | 130 µM
38 | C[C@H](NC(=O)[C@@H](N)Cc1ccc(O)cc1)C(=O)O | 90 µM

Row | Structure (SMILES) | Ki
39 | CC(N)C(=O)Nc1ccccc1-c1ccccc1 (configuration not stated) | 16600 µM
40 | O=C(O)[C@H](Cc1ccc(O)cc1)NC(=O)[C@@H]1CCCN1 (H-Pro-Tyr-OH) | 730 µM
41 | NCC(=O)NCC(=O)O (H-Gly-Gly-OH) | 1000 µM
42 | N[C@@H](CC(=O)O)C(=O)N[C@@H](CC(=O)O)C(=O)O (H-Asp-Asp-OH) | 410 µM
43 | NCC(=O)N1CCC[C@H]1C(=O)O [GLYCYL PROLINE] (H-Gly-Pro-OH) | 300 µM
44 | COC(=O)c1ccccc1NC(=O)C(C)N (configuration not stated) | 890 µM
45 | CC(N)C(=O)Nc1c(F)c(F)c(F)c(F)c1F (configuration not stated) | 3100 µM
46 | NCCC(=O)NCCC(=O)O | > 30000 µM
47 | O=C(O)CNC(=O)[C@@H]1CCCN1 (H-Pro-Gly-OH) | 22000 µM
48 | CC(C)[C@H](N)C(=O)N[C@@H](Cc1ccc(O)cc1)C(=O)O (H-Val-Tyr-OH) | 100 µM
49 | C[C@H](NC(=O)[C@@H](N)CCC(=O)O)C(=O)O (H-Glu-Ala-OH) | 250 µM
50 | C[C@H](NC(=O)[C@H](C)NC(=O)OCc1ccccc1)C(=O)O (Cbz-Ala-Ala-OH) | 5600 µM
51 | CC(NC(=O)CCN)C(=O)O (configuration not stated) | 4800 µM
52 | CC(C)CC(NC(=O)C(O)C(N)Cc1ccccc1)C(=O)O (configuration not stated) | 400 µM
53 | NCC(=O)N[C@@H](Cc1c[nH]cn1)C(=O)O (H-Gly-His-OH) | 1000 µM
54 | NCCCCC(=O)O [5-AMINOVALERIC ACID] | 17400 µM
55 | CN(CC(=O)O)C(=O)[C@@H](N)Cc1ccccc1 | 210 µM
56 | CC(NC(=O)C(N)Cc1ccc(OCc2ccccc2)cc1)C(=O)O (configuration not stated) | 10 µM

Results, then the compound that gave them:

Row | Ki | Structure (SMILES)
57 | 260 µM | C[C@H](N)C(=O)N[C@@H](CC(=O)O)C(=O)O (H-Ala-Asp-OH)
58 | 120 µM | CC(N)C(=O)NC(C)C(=O)O (configuration not stated)
59 | 460 µM | CC(N)C(=O)Nc1cccc(Cl)c1 (configuration not stated)
60 | > 30000 µM | C[C@@H](N)C(=O)N1CCC[C@@H]1C(=O)O
61 | > 30000 µM | C[C@@H](N)C(=O)N[C@H](C)C(=O)O (H-[dA]-[dA]-OH)
62 | 4200 µM | C[C@H](N)C(=O)N[C@H](C)C(=O)O (H-Ala-[dA]-OH)
63 | 130 µM | N[C@@H](CO)C(=O)N1CCC[C@H]1C(=O)O (H-Ser-Pro-OH)
64 | 140 µM | C[C@H](N)C(=O)N[C@@H](CO)C(=O)O (H-Ala-Ser-OH)
65 | 2800 µM | CC(N)C(=O)Nc1ccccc1C(=O)O (configuration not stated)
66 | 1200 µM | C[C@H](N)C(=O)NC(C)(C)C(=O)O (H-Ala-[Aib]-OH)
67 | 5620 µM | CCC(C)C(N)C(=O)N1CCCCC1 (configuration not stated)
68 | 140 µM | C[C@H](NC(=O)[C@@H](N)CO)C(=O)O (H-Ser-Ala-OH)
69 | 340 µM | Cc1ccc(NC(=O)C(C)N)cc1 (configuration not stated)
70 | 4900 µM | C[C@@H](N)C(=O)N1CCC[C@H]1C(=O)O (stereo in doubt; 56)
71 | 470 µM | CC(C)C[C@H](NC(=O)[C@@H]1CCCN1)C(=O)O (H-Pro-Leu-OH)
72 | 12900 µM | CC(N)C(=O)N1CCCCC1 (configuration not stated)
73 | 980 µM | C[C@H](N)C(=O)N[C@@H](CCCN)C(=O)O (H-Ala-[Orn]-OH)
74 | 14100 µM | CC(N)C(=O)NCc1ccccc1 (configuration not stated)
75 | 110 µM | CC(C)C[C@H](N)C(=O)N1CCC[C@H]1C(=O)O (H-Leu-Pro-OH)
76 | 250 µM | C[C@H](N)C(=O)N(C)CC(=O)O (H-Ala-[Sar]-OH)
77 | 330 µM | C[C@H](N)C(=O)N[C@@H](Cc1c[nH]cn1)C(=O)O (H-Ala-His-OH)
78 | 330 µM | CC(N)C(=O)Nc1ccc(Cl)cc1 (configuration not stated)
79 | 2000 µM | C[C@H](NC(=O)[C@@H](C)N)C(=O)O (H-[dA]-Ala-OH)

Row | Ki | Structure (SMILES)
80 | 2700 µM | CC(N)C(=O)NCCC(=O)O (configuration not stated)
81 | 70 µM | CC[C@H](NC(=O)[C@H](C)N)C(=O)O (H-Ala-[Abu]-OH)
82 | 11000 µM | CC(N)C(=O)N1CCSC1 (configuration not stated)
83 | 60 µM | CC(C)[C@H](N)C(=O)N1CCC[C@H]1C(=O)O (H-Val-Pro-OH)
84 | 140 µM | C[C@H](N)C(=O)NCC(=O)O (H-Ala-Gly-OH)
85 | 2900 µM | CC(N)C(=O)Nc1ccccc1 (configuration not stated)
86 | 9500 µM | C[C@H](NC(=O)[C@@H]1CCCN1)C(=O)O (H-Pro-Ala-OH)
87 | 9100 µM | CC(N)C(=O)Nc1ccc(C(=O)O)cc1 (configuration not stated)
88 | 330 µM | CC(N)C(=S)N1CCCC1C(=O)O (configuration not stated)
89 | 480 µM | C[C@H](NC(=O)[C@@H](N)Cc1c[nH]cn1)C(=O)O (H-His-Ala-OH)
90 | 7800 µM | CC(N)C(=O)Nc1ccccc1Cl (configuration not stated)
91 | 15100 µM | C[C@@H](N)C(=O)N1CCC[C@H]1C(=O)O (stereo in doubt; 69)
92 | 1200 µM | CC(N)C(=O)NCCS(=O)(=O)O (configuration not stated)
93 | 60 µM | C[C@H](N)C(=O)N1CCCC[C@H]1C(=O)O (H-Ala-[Pip]-OH)
94 | 1500 µM | CC(N)C(=O)NC1CCCCC1 (configuration not stated)
95 | 90 µM | CCCC[C@H](NC(=O)[C@H](C)N)C(=O)O (H-Ala-[Nle]-OH)
96 | 120 µM | CC(C)C[C@H](N)C(=O)N[C@@H](C)C(=O)O [LEU-ALA] (H-Leu-Ala-OH)
97 | 320 µM | C[C@H](NC(=O)[C@@H](N)CC(=O)O)C(=O)O (H-Asp-Ala-OH)
98 | 150 µM | C[C@H](N)C(=O)N1CCC[C@H]1C(=O)O
99 | 410 µM | Cc1cccc(NC(=O)C(C)N)c1 (configuration not stated)
100 | 160 µM | CCCC[C@H](N)C(=O)N1CCC[C@H]1C(=O)O (H-[Nle]-Pro-OH)
101 | 320 µM | C[C@H](N)C(=O)N[C@@H](CCC(=O)O)C(=O)O (H-Ala-Glu-OH)
102 | 310 µM | CC(N)C(=O)Nc1cccc(C(=O)O)c1 (configuration not stated)
